melting point: 250 to 255 °C (dec.)
Structure (SMILES): C[C@H](CO)Nc1nc(SCc2ccccc2F)nc2[nH]c(N)nc12 [Example 4, (2R)-2-[[8-amino-2-[[(2-fluorophenyl)methyl]thio]-9H-purin-6-yl]amino]-1-propanol]

Reference: patent publication US6958344B2, “Pyrimidine compounds and their use as modulators of chemokine receptor activity” (AstraZeneca AB, priority 2000, dated 2005)
